Square brackets hold non-standard residues; d marks the D form. Peptide text beside a SMILES is read from it. ξ: configuration not given here. dPip = O=C(O)[C@H]1CCCCN1; dThz = O=C(O)[C@H]1CSCN1; ξAze = O=C(O)C1CCN1
Key:
[1] = biological target: human thrombin (Homo sapiens, UniProt P00734); assay: Human thrombin inhibition (amidase activity, chromogenic substrate; Kass); settings: purified human thrombin, mean over a range of concentrations
Procedure: Standard curves are constructed by plotting free thrombin concentration against hydrolysis rate. […] The amount of free inhibitor in each assay is calculated by subtracting the number of moles of bound thrombin from the number of moles of added inhibitor (test compound).
Kass is calculated for a range of concentrations of test compounds and the mean value reported in units of liter per mole.

[2] = Index of Bioavailability (plasma thrombin time AUC, oral vs i.v.); assay type: in vivo; settings: rats; dose-adjusted AUC of plasma TT time course, p.o. vs i.v. bolus
Excerpt: Assays are done in duplicate and averaged.
Each sample population represents alternating sequential time points.

[3] = tested on: thrombin; settings: Bajusz et al., J. Med. Chem., 33, 1729-1735 (1990); cited from earlier work
[4] = Pharmacokinetic model in dogs, single oral dose; assay type: in vivo, dogs (Beagles); settings: single 2 mg/kg oral dose
Procedure: Male dogs (Beagles; 18 months-2 years; 12-13 kg, Marshall Farms, North Rose, N.Y. 14516) are fasted overnight and fed Purina certified Prescription Diet (Purina Mills, St. Louis, Miss.) 240 minutes after dosing. Water is available ad libitum. The room temperature is maintained between 66°-74° F.; 45-50 percent relative humidity; and lighted from 0600-1800 hours.
Test compound is formulated immediately prior to dosing by dissolving in sterile 0.9 percent saline to a 5 mg/ml preparation. Dogs are given a single 2 mg/kg dose of test compound by oral garage. Blood samples (4.5 ml) are taken from the cephalic vein at 0.25, 0.5, 0.75, 1,2,3,4 and 6 hours after dosing. Samples are collected in citrated Vacutainer tubes and kept on ice prior to reduction to plasma by centrifugation. Plasma samples are derivatized with dinitrophenylhydrazine and analyzed by HPLC (Zorbax SB-C8 column) eluting with methanol/500 mM sodium acetate adjusted to pH7 with phosphoric acid (60:40, v/v). Plasma concentration of test compound is recorded and used to calculate the pharmacokinetic parameters: elimination rate constant, Ke; total clearance, Clt; volume of distribution, VD; time of maximum plasma test compound concentration, Tmax; maximum concentration of test compound of Tmax, Cmax; plasma half-life, t0.5; and area under the curve, A.U.C.; fraction of test compound absorbed, F.

[5] = Template Bleeding Time assay (gingival); assay type: in vivo, dog; settings: 0.25, 0.50 and 1.0 mg/kg.hr; over a 240 minute time
Procedure: Whole blood cell counts, hemoglobin, and hematocrit values are determined on a 40-μl sample of citrated (3.8 percent) blood (1 part citrate:9 parts blood) with a hematology analyzer (Cell-Dyn 900, Sequoia-Turner. Mount View, Calif., U.S.A.). Gingival template bleeding times are determined with a Simplate II bleeding time device (Organon Teknika Durham, N.C., U.S.A.). The device is used to make 2 horizontal incisions in the gingiva of either the upper or lower left jaw of the dog. Each incision is 3 mm wide×2 mm deep. The incisions are made, and a stopwatch is used to determine how long bleeding occurs. A cotton swab is used to soak up the blood as it oozes from the incision. Template bleeding time is the time from incision to stoppage of bleeding. Bleeding times are taken just before administration of test compound (0 min), 60 min into infusion, at conclusion of administration of the test compound (120 min), and at the end of the experiment.
All data are analyzed by one-way analysis of variance (ANOVA) followed by Student-Neuman-Kuels post hoc t test to determine the level of significance. Repeated-measures ANOVA are used to determine significant differences between time points during the experiments. Values are determined to be statistically different at least at the level of p<0.05. All values are mean ±SEM. […]

[6] = early clinical studies, Simoons et al.; cited from earlier work

Row | Compound | Kass × 10^6 (l/mole) [1] | Percent Relative Activity (Index of Bioavailability) [2] | also measured
1 | Cl.Cl.Cl.N=C(N)NCCC[C@@H](C=O)NC(=O)[C@@H]1CCCN1C(=O)[C@H]1C[C@H](Sc2ccccc2)CN1.O.O.O [Example 14, trans-4-phenylthio-D-prolinyl-L-prolinyl-L-arginine aldehyde trihydrochloride trihydrate] | 37 × 10^6 l/mole | – | –
2 | Cl.Cl.N=C(N)NCCC[C@@H](C=O)NC(=O)[C@@H]1CCCN1C(=O)C1NCCCC2CCCCC21 (mixture of isomers) [Example 8, DL-cis-3-aza-bicyclo[5.4.0]undecanyl-2-carbonyl-L-prolinyl-L-arginine aldehyde dihydrochloride] | 595 × 10^6 l/mole | 43% | –
3 | Cl.Cl.N=C(N)NCCC[C@@H](C=O)NC(=O)[C@@H]1CCCN1C(=O)C1CNCCN1 (stereo partly drawn) [Example 9, D,L-Piperazin-2-oyl-L-Prolinyl-L-Arginine Aldehyde Dihydrochloride] | 121 × 10^6 l/mole | 19% | –
4 | CN[C@H](Cc1ccccc1)C(=O)N1CCC[C@H]1C(=O)N[C@H](C=O)CCCNC(=N)N [D-MePhe-Pro-Arg-H] | – | – | direct inhibition of thrombin [3]: potent direct inhibition of thrombin
5 | CC(C)C1N[C@@H](C(=O)N2CCC[C@H]2C(=O)N[C@H](C=O)CCCNC(=N)N)C(C)(C)S1.Cl.Cl (stereo partly drawn) [Example 5, D-2-Isopropyl-5,5-Dimethylthiazolidinyl-4-Carbonyl-L-Prolinyl-L-Arginine Aldehyde Dihydrochloride] | 4 × 10^6 l/mole | – | –
6 | Cl.Cl.N=C(N)NCCC[C@@H](C=O)NC(=O)[C@@H]1CCCN1C(=O)C1NCCS1 (stereo partly drawn) [Example 10, D,L-Thiazolidinyl-2-carbonyl-L-prolinyl-L-arginine aldehyde dihydrochloride] | 27 × 10^6 l/mole | 5% | –
7 | Cl.Cl.Cl.N=C(N)NCCC[C@@H](C=O)NC(=O)[C@@H]1CCCN1C(=O)[C@H]1C[C@@H](Oc2ccccc2)CN1.O (relative stereo) [Example 12, D-Cis-(4-phenoxy) Prolinyl-L-Prolinyl-L-Arginine Aldehyde Trihydrochloride Monohydrate] | 25 × 10^6 l/mole | 16% | –
8 | D-Prolinyl-L-Prolinyl-L-Arginine Aldehyde Dihydrochloride [Example 2] | 12 × 10^6 l/mole | 36% | –
9 | Cl.Cl.Cl.N=C(N)NCCC[C@@H](C=O)NC(=O)[C@@H]1CCCN1C(=O)[C@H]1C[C@H](Oc2ccc3ccccc3c2)CN1.O [Example 6, trans-4-(2-Naphthyloxy)-D-Prolinyl-L-Prolinyl-L-Arginine Aldehyde Trihydrochloride Monohydrate] | 21 × 10^6 l/mole | – | –
10 | Cl.Cl.N=C(N)NCCC[C@@H](C=O)NC(=O)[C@@H]1CCCN1C(=O)[C@H]1CCCCN1 [Example 1, D-Homoprolinyl-L-Prolinyl-L-Arginine Aldehyde Dihydrochloride] (H-[dPip]-Pro-Arg-aldehyde) | 46 × 10^6 l/mole | 38% | A.U.C. o-infinity [4]: 4651 ng·h/mL; Cmax [4]: 1676 ng/mL; Ke (elimination rate constant) [4]: 0.0104 min⁻¹; Tmax [4]: 1 to 2 h; VD/F (volume of distribution) [4]: 0.729 L/kg; t0.5 (plasma half-life) [4]: 1.12 h; effect on template bleeding time [5]: no significant effect on template bleeding time
11 | CN[C@H](Cc1ccccc1)C(=O)N1CCC[C@H]1C(=O)N[C@H](C=O)CCCNC(=N)N.O=S(=O)(O)O [D-MePhe-Pro-Arg-H sulfate] | – | – | anticoagulant in man [6]: is an anticoagulant in man
12 | CC(C)(C)OC(=O)N[C@H](Cc1ccccc1)C(=O)N1CCC[C@H]1C(=O)N[C@H](C=O)CCCNC(=N)N [Boc-D-Phe-Pro-Arg-H] | – | – | direct inhibition of thrombin [3]: potent direct inhibition of thrombin
13 | N=C(N)NCCC[C@@H](C=O)NC(=O)[C@@H]1CCCN1C(=O)[C@H](N)Cc1ccccc1 [D-Phe-Pro-Arg-H] | – | – | direct inhibition of thrombin [3]: potent direct inhibition of thrombin
14 | Cl.Cl.N=C(N)NCCC[C@@H](C=O)NC(=O)C1CCN1C(=O)[C@H]1CCCCN1 (stereo partly drawn) [Example 3, D-Homoprolinyl-L-Azetidinyl-L-Arginine Aldehyde Dihydrochloride] (H-[dPip]-[ξAze]-Arg-aldehyde) | 45 × 10^6 l/mole | 32% | –
15 | Cl.Cl.N=C(N)NCCC[C@@H](C=O)NC(=O)[C@@H]1CCCN1C(=O)[C@H]1CSCN1 [Example 4, D-Thiazolidinyl-4-Carbonyl-L-Prolinyl-L-Arginine Aldehyde Dihydrochloride] (H-[dThz]-Pro-Arg-aldehyde) | 5 × 10^6 l/mole | 16% | –

Source: US5578574A, “Antithrombotic agents” (Eli Lilly and Company, priority 1995, dated 1996)
